In patent publication US8968883B2, “Chrysene derivative materials” (E I du Pont de Nemours and Company, priority 2009, dated 2015):
In brackets after ≈: the same amount, converted by molar mass.

Assay: Solubility in processing solvents (Table 1, Compound Properties)
Format: physicochemical
Conditions: for Solubility anisole: solvent anisole; for Solubility toluene: solvent toluene
Experimental: It is also noted that solubility of the chrysene derivative materials in processing solvents can be adjusted to satisfy solution processing requirements. In some embodiments the solubility of chrysene derivatives in toluene and anisole is higher than 20 mg per ml of solvent. High solubility allows for better solution processing of electroactive devices.

Compound `CC(C)(C)c1ccc(N(c2ccc(-c3ccccc3)cc2)c2ccc3ccc4c5ccccc5ccc4c3c2)cc1` [Compound C3, N-(biphenyl-4-yl)-N-(4-tert-butylphenyl)chrysene-3-amine] has a Solubility anisole of 22.4 mg/mL (≈ 42.4 mM) and a Solubility toluene of 22.2 mg/mL (≈ 42.1 mM).

With `[2H]c1c([2H])c([2H])c(-c2c([2H])c([2H])c(N(c3c([2H])c([2H])c(-c4c([2H])c([2H])c([2H])c(-c5c([2H])c([2H])c([2H])c([2H])c5[2H])c4[2H])c([2H])c3[2H])c3c([2H])c([2H])c4c([2H])c([2H])c5c6c([2H])c([2H])c([2H])c([2H])c6c([2H])c([2H])c5c4c3[2H])c([2H])c2[2H])c([2H])c1[2H]` [Compound C2, Perdeutero-N-([1,1′-biphenyl]-4-yl)-N-([1,1′:3′,1″-terphenyl]-4-yl)chrysen-3-amine] the solubility properties (compared with compound C1 of Table 1) was “very similar to those of compound C1”.

Compound `c1ccc(-c2ccc(N(c3ccc(-c4cccc5ccccc45)cc3)c3ccc4ccc5c6ccccc6ccc5c4c3)cc2)cc1` [Compound C5] has a Solubility anisole of 23.7 mg/mL (≈ 39.6 mM) and a Solubility toluene of 24.4 mg/mL (≈ 40.8 mM).

`c1ccc(-c2ccc(N(c3ccc(-c4cccc(-c5ccccc5)c4)cc3)c3ccc4ccc5c6ccccc6ccc5c4c3)cc2)cc1` [Compound C1] gave a Solubility anisole of 23.9 mg/mL (≈ 38.3 mM) and a Solubility toluene of 24.6 mg/mL (≈ 39.4 mM).

With `Cc1ccc(N(c2ccc(-c3ccc(-c4ccccc4)cc3)cc2)c2ccc3ccc4c5ccccc5ccc4c3c2)c(C)c1` [Compound C4] the Solubility anisole was 3.6 mg/mL (≈ 6.25 mM) and the Solubility toluene was 1.0 mg/mL (≈ 1.74 mM).
